One assay concerns the target T1, human M4 receptor (Homo sapiens, UniProt P08173).
T1 construct: expressed in transfected cells; host or cells: CHO-K1 cells (membranes)
T1 sequence (P08173 1-479): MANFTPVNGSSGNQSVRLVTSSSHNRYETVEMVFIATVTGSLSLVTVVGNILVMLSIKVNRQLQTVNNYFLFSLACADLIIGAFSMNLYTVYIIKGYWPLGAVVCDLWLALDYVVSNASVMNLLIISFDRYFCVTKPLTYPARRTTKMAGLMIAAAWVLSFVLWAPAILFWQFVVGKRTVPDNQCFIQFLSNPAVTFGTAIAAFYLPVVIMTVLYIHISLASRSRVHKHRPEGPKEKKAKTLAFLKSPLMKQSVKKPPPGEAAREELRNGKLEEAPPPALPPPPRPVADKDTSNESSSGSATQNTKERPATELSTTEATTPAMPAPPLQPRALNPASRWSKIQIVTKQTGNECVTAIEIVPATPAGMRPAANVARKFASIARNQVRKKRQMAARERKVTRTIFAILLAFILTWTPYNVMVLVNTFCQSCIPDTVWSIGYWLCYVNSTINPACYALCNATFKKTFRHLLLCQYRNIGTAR
Description: M4 GTPγS PAM assay (CHO-K1 membranes, 35S-GTP binding, with EC20 acetylcholine). It counts as biochemical. The conditions noted are these: with EC20 acetylcholine (40 nM). The method, boiled down:
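Membranes from CHO-K1 cells stably expressing human M4 ([…]) in 20 mM HEPES, 10 mM MgCl2, 100 mM NaCl, with 0.1 μM GDP final, were preincubated with compound 10-15 min at RT. Acetylcholine at EC20 (40 nM final) was added for 10-15 min, then 0.4 nM 35S-GTP solution for 1 h at RT. Filter-bound radioactivity was counted.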

For a further assay, the target named is T2, hM4 receptors (Homo sapiens, UniProt P08173).
T2 construct: expressed in transfected cells; host or cells: CHO cells
T2 sequence (P08173 1-479): T1 sequence (P08173 1-479)
Description: Human M4 PAM PERK assay (CHO cells, TR-FRET, with EC20 acetylcholine). Type of assay: cell-based. A digest of the protocol:
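CHO cells expressing human or rat M4, serum-starved 4 h, then given compound (10-point, 10 μM top, ½-log) with EC20 acetylcholine (10 nM final) for 5 min at 37 °C. Lysates assayed for phospho-ERK by TR-FRET after 2 h detection at RT.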
For orientation: In TR-FRET formats the signal depends on donor and acceptor labels being close together.

Usually EC50 stands for the concentration needed to bring the measured effect to its halfway point.

For `Cc1cc(=O)n(C)c2c1CN(C(=O)CC1CN(c3cc(F)cc(C4CC4)c3)C1)C2` [Compound I-4], the 50% effective concentration (EC50) on human M4 receptor was below 0.05 µM; at hM4 receptors, 0.05 to 0.2 µM.

With `Cc1cc(=O)n(C)c2c1CN(C(=O)CC1CN(c3cccc(F)c3F)C1)C2` [Compound I-14], the EC50 on human M4 receptor and on hM4 receptors was 0.05 to 0.2 µM each time.

With `Cc1c2c(n(C)c(=O)c1C)CN(C(=O)CC1CN(c3ccnc(C(F)(F)F)c3)C1)C2` [Compound I-42, 1,3,4-Trimethyl-6-(2-(1-(2-(trifluoromethyl)pyridin-4-yl)azetidin-3-yl)acetyl)-1,5,6,7-tetrahydro-2H-pyrrolo[3,4-b]pyridin-2-one], the EC50 at human M4 receptor and on hM4 receptors was below 0.05 µM throughout.

As for `Cc1c2c(n(C)c(=O)c1F)CN(C(=O)CC1CN(c3ccc(C4CC4)c(F)c3)C1)C2` [Compound I-88], the EC50 on human M4 receptor and at hM4 receptors was below 0.05 µM throughout.

The values are drawn from patent US20260209220A1, “SUBSTITUTED TETRAHYDROPYRROLO-PYRIDINONE COMPOUNDS AND THEIR USE IN TREATING MEDICAL CONDITIONS” (Karuna Therapeutics, Inc., priority 2022, published 2026).
